Test: Aqueous-phase analysis of the stability of lycopene (decomposition by light and oxygen)
Assay type: physicochemical
Protocol: It is known that light and oxygen cause lycopene to decompose. An aqueous-phase analysis of the stability of lycopene alone and of lycopene in combination with the whey protein according to the invention was carried out. After one day in the aqueous phase for lycopene alone, only 40% of the lycopene remains, whereas, with the whey, virtually 90% of it, remains.

For `CC(C)=CCC/C(C)=C/C=C/C(C)=C/C=C/C(C)=C/C=C/C=C(C)/C=C/C=C(C)/C=C/C=C(\C)CCC=C(C)C` [lycopene alone, lycopene], the “Lycopene remaining after one day” value (one day) was 40% and the “Lycopene remaining after two days” value (two days) was “virtually completely decomposed”.

— patent publication US8455004B2, “Primary composition comprising a lipophilic bioactive compound” (Nestec S.A., priority 2000, dated 2013)
